Assay results published in publication PMC7070036, “An amber obligate active site-directed ligand evolution technique for phage display” (Nature Communications, 2020).

B1: recombinant human SIRT2 (enzyme)
chain: MAEPDPSHPLETQAGKVQEAQDSDSDSEGGAAGGEADMDFLRNLFSQTLSLGSQKERLLDELTLEGVARYMQSERCRRVICLVGAGISTSAGIPDFRSPSTGLYDNLEKYHLPYPEAIFEISYFKKHPEPFFALAKELYPGQFKPTICHYFMRLLKDKGLLLRCYTQNIDTLERIAGLEQEDLVEAHGTFYTSHCVSASCRHEYPLSWMKEKIFSEVTPKCEDCQSLVKPDIVFFGESLPARFFSCMQSDFLKVDLLLVMGTSLQVQPFASLISKAPLSTPRLLINKEKAGQSDPFLGMIMGLGGGMDFDSKKAYRDVAWLGECDQGCLALAELLGWKKELEDLVRREHASIDAQSGAGVPNPSTSASPKKSPPPAKDEARTTEREKPQ

Columns and labels:
[1] = system: amber-obligate phagemid library; experiment: Phage yield on expression of the amber-obligate phagemid library with ncAAs (cfu assay); set-up: species or system E. coli Top10; details: BuKRS
[2] = molecular target: FITC-conjugated S2P03; experiment: fluorescence polarisation; SIRT2 serially diluted from 5 uM to 1 nM (24 uL) plus 1 uL of 250 nM FITC-peptide; 50 mM Tris, 137 mM NaCl, 2.7 mM KCl, 1 mM MgCl2, 1 mM DTT, 0.01% Triton X-100, pH 8.0; 37 C for 15-30 min; 384-well plate

Row | Molecule | fold increase in particle yield vs no ncAA [1] [fold] | Phage Yields, ncAA ([1]; Fig. 4e, single trials) [CFU/mL] | Kd [2] [nM]
1 | C/C=C/C(=O)NCCCC[C@H](N)C(=O)O [compound 6, N^Ɛ-crotonyl-L-lysine] | ~100 | 3.00E+09 | –
2 | B1 | – | – | 49
